Measurements taken from patent US20220135591A1, “HETEROCYCLIC COMPOUNDS AS INHIBITORS OF MONOACYLGLYCEROL LIPASE (MAGL)” (Hoffmann-La Roche Inc., priority 2019, published 2022).

Target: T1, MAGL (recombinant wild-type) (Homo sapiens, UniProt Q99685)
T1 sequence (Q99685 1-303): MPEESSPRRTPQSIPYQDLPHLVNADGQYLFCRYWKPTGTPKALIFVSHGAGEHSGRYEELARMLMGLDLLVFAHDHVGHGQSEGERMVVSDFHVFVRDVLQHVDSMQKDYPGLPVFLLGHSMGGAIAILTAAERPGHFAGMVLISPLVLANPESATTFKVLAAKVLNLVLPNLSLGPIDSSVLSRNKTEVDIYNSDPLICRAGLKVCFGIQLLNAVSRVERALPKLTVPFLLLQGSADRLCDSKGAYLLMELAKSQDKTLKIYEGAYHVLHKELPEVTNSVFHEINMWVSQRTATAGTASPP
Experiment: 4-NPA assay: MAGL inhibitory activity by hydrolysis of 4-nitrophenylacetate, absorbance at 405 nm
Format: biochemical
Conditions: 4-NPA assay (values without footnote [b])
Method: Compounds were profiled for MAGL inhibitory activity by measuring the enzymatic activity of MAGL by following the hydrolysis of 4-nitrophenylacetate resulting in 4-nitrophenol, which absorbs at 405-412 nm (G. G. Muccioli, G. Labar, D. M. Lambert, Chem. Bio. Chem. 2008, 9, 2704-2710). This assay is hereinafter abbreviated “4-NPA assay”.
The assay was carried out in 384 well assay plates (black with clear bottom, non-binding surface treated, Corning Ref. 3655) in a total volume of 40 μL. Compound dilutions were made in 100% DMSO (VWR Chemicals 23500.297) in a polypropylene plate in 3-fold dilution steps to give a final concentration range in the assay from 25 μM to 1.7 nM. 1 μL compound dilutions (100% DMSO) were added to 19 μL MAGL (recombinant wild-type) in assay buffer (50 mM TRIS (GIBCO, 15567-027), 1 mM EDTA (Fluka, 03690-100 mL)). The plate was shaked for 1 min at 2000 rpm (Variomag Teleshake) and then incubated for 15 min at RT. To start the reaction, 20 μL 4-Nitrophenlyacetate (Sigma N-8130) in assay buffer with 6% EtOH was added. The final concentrations in the assay were 1 nM MAGL and 300 μM 4-Nitrophenylacetate. After shaking (1 min, 2000 rpm) and 5 min incubation at RT, the absorbance at 405 nm was measured for a first time (Molecular Devices, SpectraMax Paradigm). A second measurement was then done after incubation for 80 min at RT. From the two measurements, the slope was calculated by subtracting the first from the second measurement.

Compound	IC50 [µM]
CC(C)(C)Cc1nnc(-c2ccc(C(=O)N3CCN(c4nc5nc(Cl)ccc5o4)CC3)cc2)o1 [Example 16, [4-(5-chlorooxazolo[4,5-b]pyridin-2-yl)piperazin-1-yl]-[4-[5-(2,2-dimethylpropyl)-1,3,4-oxadiazol-2-yl]phenyl]methanone]	0.01
Cc1ccc2oc(N3CCN(C(=O)c4ccc5nc(C6CCCCC6)oc5c4)CC3)nc2n1 [Example 17, (2-cyclohexyl-1,3-benzoxazol-6-yl)-[4-(5-methyloxazolo[4,5-b]pyridin-2-yl)piperazin-1-yl]methanone]	0.036
Cc1ccc2oc(N3CCN(C(=O)c4ccc5nc(CCC(F)(F)F)oc5c4)CC3)nc2n1 [Example 18, [4-(5-methyloxazolo[4,5-b]pyridin-2-yl)piperazin-1-yl]-[2-(3,3,3-trifluoropropyl)-1,3-benzoxazol-6-yl]methanone]	0.434
CC(C)(C)Cn1cc(-c2ccc(C(=O)N3CCN(c4nc5nc(Cl)ccc5o4)CC3)cc2)cn1 [Example 19, [4-(5-chlorooxazolo[4,5-b]pyridin-2-yl)piperazin-1-yl]-[4-[1-(2,2-dimethylpropyl)pyrazol-4-yl]phenyl]methanone]	0.002
CC(C)(CF)c1nc(-c2ccc(C(=O)N3CCN(c4nc5nc(Cl)ccc5o4)CC3)cc2)no1 [Example 20, (4-(5-chlorooxazolo[4,5-b]pyridin-2-yl)piperazin-1-yl)(4-(5-(1-fluoro-2-methylpropan-2-yl)-1,2,4-oxadiazol-3-yl)phenyl)methanone]	0.019
CC/C=C/c1nc2ccc(C(=O)N3CCN(c4nc5nc(C)ccc5o4)CC3)cc2o1 [Example 21, [2-[(E)-but-1-enyl]-1,3-benzoxazol-6-yl]-[4-(5-methyloxazolo[4,5-b]pyridin-2-yl)piperazin-1-yl]methanone]	0.184
Cc1ccc2oc(N3CCN(C(=O)c4ccc5nc(C6CC6)oc5c4)CC3)nc2n1 [Example 22, (2-cyclopropyl-1,3-benzoxazol-6-yl)-[4-(5-methyloxazolo[4,5-b]pyridin-2-yl)piperazin-1-yl]methanone]	1.25
CC(=O)Cc1nc(-c2ccc(C(=O)N3CCN(c4nc5nc(Cl)ccc5o4)CC3)cc2)no1 [Example 23, 1-[3-[4-[4-(5-chlorooxazolo[4,5-b]pyridin-2-yl)piperazine-1-carbonyl]phenyl]-1,2,4-oxadiazol-5-yl]propan-2-one]	1.55
CC(C)(F)c1nc(-c2ccc(C(=O)N3CCN(c4nc5nc(Cl)ccc5o4)CC3)cc2)no1 [Example 24, [4-(5-chlorooxazolo[4,5-b]pyridin-2-yl)piperazin-1-yl]-[4-[5-(1-fluoro-1-methyl-ethyl)-1,2,4-oxadiazol-3-yl]phenyl]methanone]	0.074
CC(C)(C)Cc1noc(-c2ccc(C(=O)N3CCN(c4nc5nc(Cl)ccc5o4)CC3)cc2)n1 [Example 25, [4-(5-chlorooxazolo[4,5-b]pyridin-2-yl)piperazin-1-yl]-[4-[3-(2,2-dimethylpropyl)-1,2,4-oxadiazol-5-yl]phenyl]methanone]	0.003
O=C(c1ccc(-c2noc(C3(F)CC3)n2)cc1)N1CCN(c2nc3nc(Cl)ccc3o2)CC1 [Example 26, [4-(5-chlorooxazolo[4,5-b]pyridin-2-yl)piperazin-1-yl]-[4-[5-(1-fluorocyclopropyl)-1,2,4-oxadiazol-3-yl]phenyl]methanone]	0.206
CC(C)(C)Cn1cnc(-c2ccc(C(=O)N3CCN(c4nc5nc(Cl)ccc5o4)CC3)cc2)n1 [Example 27, [4-(5-chlorooxazolo[4,5-b]pyridin-2-yl)piperazin-1-yl]-[4-[1-(2,2-dimethylpropyl)-1,2,4-triazol-3-yl]phenyl]methanone]	0.003
Cc1ccc2oc(N3CCN(C(=O)c4ccc(-c5ncn(CC(C)(C)C)n5)cc4)CC3)nc2n1 [Example 28, [4-[1-(2,2-dimethylpropyl)-1,2,4-triazol-3-yl]phenyl]-[4-(5-methyloxazolo[4,5-b]pyridin-2-yl)piperazin-1-yl]methanone]	0.012
CC(C)(C)Cn1cnc(-c2ccc(C(=O)N3CCN(c4nc5nc(Cl)ccc5o4)CC3)cc2)c1 [Example 29, [4-(5-chlorooxazolo[4,5-b]pyridin-2-yl)piperazin-1-yl]-[4-[1-(2,2-dimethylpropyl)imidazol-4-yl]phenyl]methanone]	0.003
CC(C)(C)c1nnc(-c2ccc(C(=O)N3CCN(c4nc5nc(Cl)ccc5o4)CC3)cc2)o1 [Example 30, [4-(5-tert-butyl-1,3,4-oxadiazol-2-yl)phenyl]-[4-(5-chlorooxazolo[4,5-b]pyridin-2-yl)piperazin-1-yl]methanone; 2,2,2-trifluoroacetic acid]	0.068
Cc1ccc2oc(N3CCN(C(=O)c4ccc(-c5nnc(C(C)(C)C)o5)cc4)CC3)nc2n1 [Example 31, [4-(5-tert-butyl-1,3,4-oxadiazol-2-yl)phenyl]-[4-(5-methyloxazolo[4,5-b]pyridin-2-yl)piperazin-1-yl]methanone]	0.26
CC(C)(O)Cc1nc(-c2ccc(C(=O)N3CCN(c4nc5nc(Cl)ccc5o4)CC3)cc2)no1 [Example 32, [4-(5-chlorooxazolo[4,5-b]pyridin-2-yl)piperazin-1-yl]-[4-[5-(2-hydroxy-2-methyl-propyl)-1,2,4-oxadiazol-3-yl]phenyl]methanone]	0.653
Cc1ccc2oc(N3CCN(C(=O)c4ccc(-c5nnc(C(C)(C)CF)o5)cc4)CC3)nc2n1 [Example 33, [4-[5-(2-fluoro-1,1-dimethyl-ethyl)-1,3,4-oxadiazol-2-yl]phenyl]-[4-(5-methyloxazolo[4,5-b]pyridin-2-yl)piperazin-1-yl]methanone]	0.498
CC(C)(CF)c1nnc(-c2ccc(C(=O)N3CCN(c4nc5nc(Cl)ccc5o4)CC3)cc2)o1 [Example 34, [4-(5-chlorooxazolo[4,5-b]pyridin-2-yl)piperazin-1-yl]-[4-[5-(2-fluoro-1,1-dimethyl-ethyl)-1,3,4-oxadiazol-2-yl]phenyl]methanone; 2,2,2-trifluoroacetic acid]	0.176
Cc1ccc2oc(N3CCN(C(=O)c4ccc(-c5noc(C6(F)CC6)n5)cc4)CC3)nc2n1 [Example 35, [4-[5-(1-fluorocyclopropyl)-1,2,4-oxadiazol-3-yl]phenyl]-[4-(5-methyloxazolo[4,5-b]pyridin-2-yl)piperazin-1-yl]methanone]	0.369
Cc1ccc2oc(N3CCN(C(=O)c4ccc(-c5noc(C6(CF)CC6)n5)cc4)CC3)nc2n1 [Example 36, [4-[5-[1-(fluoromethyl)cyclopropyl]-1,2,4-oxadiazol-3-yl]phenyl]-[4-(5-methyloxazolo[4,5-b]pyridin-2-yl)piperazin-1-yl]methanone]	0.257
O=C(c1ccc(-c2noc(C3(CF)CC3)n2)cc1)N1CCN(c2nc3nc(Cl)ccc3o2)CC1 [Example 37, [4-(5-chlorooxazolo[4,5-b]pyridin-2-yl)piperazin-1-yl]-[4-[5-[1-(fluoromethyl)cyclopropyl]-1,2,4-oxadiazol-3-yl]phenyl]methanone]	0.101
Cc1ccc2oc(N3CCN(C(=O)c4ccc(-c5nc(C(C)(C)C)no5)cc4)CC3)nc2n1 [Example 38, [4-(3-tert-butyl-1,2,4-oxadiazol-5-yl)phenyl]-[4-(5-methyloxazolo[4,5-b]pyridin-2-yl)piperazin-1-yl]methanone]	0.045
CC(C)(C)c1noc(-c2ccc(C(=O)N3CCN(c4nc5nc(Cl)ccc5o4)CC3)cc2)n1 [Example 39, [4-(3-tert-butyl-1,2,4-oxadiazol-5-yl)phenyl]-[4-(5-chlorooxazolo[4,5-b]pyridin-2-yl)piperazin-1-yl]methanone]	0.019
CC1(Cc2nc(-c3ccc(C(=O)N4CCN(c5nc6nc(Cl)ccc6o5)CC4)cc3)no2)CC1 [Example 40, [4-(5-chlorooxazolo[4,5-b]pyridin-2-yl)piperazin-1-yl]-[4-[5-[(1-methylcyclopropyl)methyl]-1,2,4-oxadiazol-3-yl]phenyl]methanone]	0.006
CC(C)(C)n1cnc(-c2ccc(C(=O)N3CCN(c4nc5nc(Cl)ccc5o4)CC3)cc2)n1 [Example 41, [4-(1-tert-butyl-1,2,4-triazol-3-yl)phenyl]-[4-(5-chlorooxazolo[4,5-b]pyridin-2-yl)piperazin-1-yl]methanone]	0.029
Cc1ccc2oc(N3CCN(C(=O)c4ccc(-c5ncn(C(C)(C)C)n5)cc4)CC3)nc2n1 [Example 42, [4-(1-tert-butyl-1,2,4-triazol-3-yl)phenyl]-[4-(5-methyloxazolo[4,5-b]pyridin-2-yl)piperazin-1-yl]methanone]	0.086
